Measured values reported in publication PMC12040169 (PLOS Biology, 2025).

Test: in vitro
Conditions: human, hela cells, % viability

Row | SMILES | viability at 28.5 h, 10 µM
1 | COCc1cc(C)nc(OCC(=O)N2CCCCC2)c1C#N [CBK270228] | 104%
2 | COc1ccc2c(C)nc(NC3=NC(c4ccccc4)CC(=O)N3)nc2c1 (centres unmarked) [CBK270230] | 85.4%
3 | O=C(O)CC(Cc1ccccc1)c1ccc(Cl)cc1 (centres unmarked) [CBK270231] | 89.6%
4 | CC(O)CNCc1ccc(OCC(=O)NC(C)(C)C)cc1 (centres unmarked) [CBK270232C] | 87.1%
5 | COc1ccc(Cl)cc1S(=O)(=O)NC(C)C(=O)O (centres unmarked) [CBK270233] | 106%
6 | c1cc(CSc2nnc(-c3ccncc3)o2)ccn1 [CBK270235] | 92.3%
7 | CCc1[nH]nc2c1C(C1C=CCCC1)C(C#N)=C(N)O2 (centres unmarked) [CBK270236] | 92.9%
8 | COc1cc(CNCc2cccs2)cc(Cl)c1OCC(N)=O [CBK270237C] | 87.6%
9 | COc1cc(CNCC2CCCO2)cc(Cl)c1OCC(N)=O (centres unmarked) [CBK270238C] | 88.4%
10 | Cc1nnc(CSc2nnc(-c3ccc(Cl)cc3)[nH]2)o1 [CBK270241] | 102%
11 | Cn1c(=O)n(C)c2cc(CNc3nn[nH]n3)ccc21 [CBK270243] | 92.4%
12 | Cc1ccc(-c2nnc(SCC(=O)Nc3ccc(N4CCOCC4)cc3)n2C)cc1 [CBK270247] | 111%
13 | O=C(Nc1ccc(-n2cc(Cl)cn2)cc1)c1ccncc1 [CBK270249] | 88.2%
14 | N#Cc1c(Nc2cccc(F)c2)sc2c(O)cc(O)nc12 [CBK270250] | 100%
15 | COc1ccc(C(=O)Nc2c(Cl)ccc3nsnc23)cc1 [CBK270252] | 87.2%
16 | COCc1cc(=O)[nH]c(N2CCN(Cc3ccccc3)CC2)n1 [CBK270253] | 88.4%
17 | Cc1nn(-c2nc3ccccc3s2)c(O)c1C [CBK270254] | 87.8%
18 | O=C(Nc1cccc(-c2csnn2)c1)c1ccco1 [CBK270255] | 85.2%
19 | COC(=O)c1ccc(N2CCOCC2)c(NC(=O)c2cccnc2)c1 [CBK270257] | 95.9%
20 | CCn1c(CN2CCOCC2)nnc1SCC(=O)Nc1cc(C)cc(C)c1 [CBK270258] | 95.9%
21 | O=C(CN1C(=O)COc2ccccc21)NC1CC1 [CBK270261] | 96%
22 | CCOC(=O)c1ccc(N2CCN(C(C)=O)CC2)c(NC(=O)c2cccc(F)c2)c1 [CBK270263] | 93.8%
23 | COc1ccc(C(=O)Nc2ccc(N3CCN(C(=O)C(C)(C)C)CC3)cc2)cc1 [CBK270266] | 99%
24 | CCN1CCN(c2ccc(C(=O)OC)cc2NC(=O)c2ccccc2Cl)CC1 [CBK270267] | 98.3%

Row | SMILES | viability at 28.5 h, 10 µM
25 | Cc1ccc2nc(-c3ccccc3)c(C)c(C(=O)O)c2c1 [CBK270268] | 87.6%
26 | COc1ccc(C)cc1NC(=O)C1CC(=O)Nc2ncnn21 (centres unmarked) [CBK270274] | 99.5%
27 | CC(C)Oc1cccc(C(=O)Nc2ccc(N3CCN(C(=O)C(C)(C)C)CC3)cc2)c1 [CBK270280] | 88.7%
28 | Cc1ccc(OCC(=O)Nc2cccnc2)c(-n2nc3ccccc3n2)c1 [CBK270281] | 90.9%
29 | Cc1ccc(Cl)cc1N1CCN(S(=O)(=O)N(C)C)CC1 [CBK270284] | 101%
30 | CN1C(=O)C2(N=C(N)NC(Nc3ccc(F)cc3)=N2)c2ccccc21 (centres unmarked) [CBK270285] | 94.8%
31 | COc1ccc(-c2noc(CN(C)C(=O)c3cccs3)n2)cc1 [CBK270286] | 89.6%
32 | CCOc1ccc(S(=O)(=O)N2CCC(C(=O)N3CCOCC3)CC2)cc1Cl [CBK270288] | 93.8%
33 | CCn1c(SCC(N)=O)nnc1C(C)Oc1ccc(C)c(C)c1 (centres unmarked) [CBK270289] | 88.4%
34 | Cc1ccnc(SCc2ccc(F)cc2Cl)n1 [CBK270290] | 87.4%
35 | c1ccc(SCc2csc(-c3ccc4c(c3)OCO4)n2)nc1 [CBK270294] | 87.7%
36 | CCN1CCN(C(=O)C2CC=CCC2C(=O)O)CC1 (centres unmarked) [CBK270295] | 91.6%
37 | O=S(=O)(c1ccc(Cl)s1)N1CCN(c2ccccn2)CC1 [CBK270305] | 110%
38 | CCn1cc(S(=O)(=O)NCc2ccccc2F)cn1 [CBK270306] | 91.6%
39 | COc1ccc(C(C)NC(=O)C2CCCCC2C(=O)O)cc1OC (centres unmarked) [CBK270309] | 91.1%
40 | CCN1CCN(C(=O)C2CC(C)=C(C)CC2C(=O)O)CC1 (centres unmarked) [CBK270311] | 87.1%
41 | CCc1c(C)sc(NC(=O)CSc2nnnn2C)c1C(=O)OC [CBK270312] | 90.7%
42 | CCOc1ccc(S(=O)(=O)Nc2cnccn2)cc1 [CBK270313] | 121%
43 | CCc1ccc(NS(=O)(=O)c2cnn(CC)c2)cc1 [CBK270314] | 101%
44 | CCCCS(=O)(=O)N1CCN(CCc2ccccc2)CC1 [CBK270316] | 87.3%
45 | CC(NC(=O)c1ccc(F)cc1Cl)c1ccccc1 (centres unmarked) [CBK270317] | 89.3%
46 | O=C(O)C1C2C=CC(C2)C1C(=O)N1CCN(Cc2ccc(Cl)cc2)CC1 (centres unmarked) [CBK270318] | 83.8%
47 | O=C(NC1CC1)c1ccsc1NC(=O)C1C2C=CC(C2)C1C(=O)O (centres unmarked) [CBK270322] | 98.7%
48 | COc1cc(NC(=O)Nc2ccccc2OC)c(OC)cc1Cl [CBK270329] | 95.7%

Row | SMILES | viability at 28.5 h, 10 µM
49 | CCNS(=O)(=O)c1ccc(NC(=O)Nc2ccccc2OC)cc1 [CBK270331] | 87.8%
50 | O=C(NCCN1CCCCC1)c1cccc(Oc2ccccc2)c1 [CBK270335] | 98.2%
51 | O=C(O)C1C2CCC(CC2)C1C(=O)N1CCN(Cc2ccccc2Cl)CC1 (centres unmarked) [CBK270336] | 100%
52 | COCc1cc(C)nc(SCC(=O)O)c1C#N [CBK270463] | 88.2%
53 | O=C(O)c1ccc(N2C(=O)CC(N3CCN(CCO)CC3)C2=O)cc1 (centres unmarked) [CBK271638] | 88.9%
54 | O=C(CSc1ncccc1C(=O)O)c1ccccc1 [CBK273178] | 94.1%
55 | CCc1nnc(NC(=O)c2cccc(F)c2)s1 [CBK273362] | 90.4%
56 | O=C(O)c1ccccc1SC1CC(=O)N(c2ccccc2)C1=O (centres unmarked) [CBK273885] | 94.6%
57 | Cc1nc2ccccc2c(C(=O)O)c1-c1ccccc1 [CBK274187] | 91.5%
58 | CCOc1ccc(NC(=O)C2CC=CCC2C(=O)O)cc1 (centres unmarked) [CBK274682] | 110%
59 | Cc1ccc2ncnc(NC(CC(C)C)C(=O)O)c2c1 (centres unmarked) [CBK275388] | 109%
60 | O=C(O)C(CC1COc2ccccc2O1)C(=O)O (centres unmarked) [CBK276280] | 89.6%
61 | CN(Cc1ccccc1)S(=O)(=O)c1ccc(OCC(=O)O)cc1 [CBK276426] | 97.9%
62 | O=C(O)CCCSCC(=O)Nc1ccccc1 [CBK276905] | 88.4%
63 | O=C(NCCCn1ccnc1)c1cc2ncc(Br)cn2n1 [CBK277080] | 97.6%
64 | COc1ccc(NC(=O)CSc2ncnc3sc(C)cc23)c(OC)c1 [CBK277541] | 100%
65 | Fc1ccc(COc2ccccc2CNCCN2CCOCC2)cc1 [CBK278150C] | 91.5%
66 | c1ccc2c(c1)n(CCN1CCOCC1)c1nc(C34CC5CC(CC(C5)C3)C4)cn21 [CBK278154C] | 105%
67 | O=C(Nc1ccc2c(O)cc(S(=O)(=O)O)cc2c1)Nc1ccc2c(O)cc(S(=O)(=O)O)cc2c1 [CBK278157N] | 91.1%
68 | Clc1ccc(OCc2ccccc2)c(CNCCN2CCOCC2)c1 [CBK278162C] | 93.4%
69 | NNc1ccc(/C=C/c2ccc(NN)cc2S(=O)(=O)O)c(S(=O)(=O)O)c1 [CBK278163N] | 91.1%
70 | O=S(=O)(O)c1cc(O)c2c(S(=O)(=O)O)cc(S(=O)(=O)O)cc2c1 [CBK278164N] | 94.9%
71 | CN1C2CCC1CC(OC(=O)CN1CCCCC1)C2 (centres unmarked) [CBK278166C] | 109%
72 | Cc1ccc(CNCCNCCO)s1 [CBK278168C] | 108%

Row | SMILES | viability at 28.5 h, 10 µM
73 | Brc1ccc(OCc2ccccc2)c(CNCCN2CCOCC2)c1 [CBK278171C] | 97%
74 | Cc1cc(C)c(NC(=O)C2CCCN2CCCN(C)C)c(C)c1 (centres unmarked) [CBK278172F] | 97.1%
75 | CC(CNC(=O)c1cncc(O)c1)NC(=O)c1cncc(O)c1 (centres unmarked) [CBK278174] | 89.2%
76 | Nc1cc(S(=O)(=O)O)c2cccnc2c1O [CBK278176] | 75.4%
77 | COc1ccc(Cl)cc1NC(=O)CCN1CCN(C)CC1 [CBK278177C] | 91%
78 | CCOC(=O)Nc1ccc2c(c1)N(C(=O)CN1CCN(C)CC1)c1ccccc1CC2 [CBK278194C] | 88.7%
79 | OCCN1CCN(CC(O)COc2ccc(Cl)cc2Cl)CC1 (centres unmarked) [CBK278198C] | 108%
80 | Fc1ccc(-c2ccc(CNCCCN3CCOCC3)o2)cc1 [CBK278199C] | 84.5%
81 | C[N+]1(C)CCN(C(=O)CCC(=O)N2CC[N+](C)(C)CC2)CC1 [CBK278200I] | 94.4%
82 | CCN1/C(=C/C(=C/c2sc3ccccc3[n+]2CCCS(=O)(=O)[O-])OC)Sc2ccccc21 [CBK278203] | 99.7%
83 | CN(C)CC(=O)N1c2ccccc2CCc2ccc(NC(=O)c3ccc([N+](=O)[O-])cc3)cc21 [CBK278207C] | 87.4%
84 | COc1ccc2ccccc2c1CNCCCN1CCOCC1 [CBK278209C] | 93.8%
85 | Cc1ncc(CO)c(CN)c1O [CBK278211C] | 86.8%
86 | c1ccc(COc2ccccc2CNCCN2CCOCC2)cc1 [CBK278212C] | 90.7%
87 | CN(C)CCNCc1ccccc1OC1CCCC1 [CBK278214C] | 111%
88 | CN(C)CCNCc1cccc(OCc2ccccc2)c1 [CBK278216C] | 89.7%
89 | C(CSC1=NCCN1)CSC1=NCCN1 [CBK278217B] | 106%
90 | CN1CCN(CCC(=O)N2c3ccccc3Sc3ccc(C(F)(F)F)cc32)CC1 [CBK278221C] | 103%
91 | C1CN=C(SCCCCSC2=NCCCN2)NC1 [CBK278223B] | 107%
92 | c1ccc(COc2cccc(CNCCN3CCOCC3)c2)cc1 [CBK278226C] | 95.8%
93 | Clc1ccc(COc2cccc(CNCCN3CCOCC3)c2)cc1 [CBK278227C] | 85%
94 | CC(=O)c1c(-c2ccc(C)cc2)nc2n(CCN3CCCCC3)c3ccccc3n12 [CBK278231C] | 101%
95 | COc1ccc(OCC(O)CN2CCN(c3ccccn3)CC2)cc1 (centres unmarked) [CBK278239C] | 81.8%
